Data reported in the supplement of paper PMC10307832.

Legend:
Test in all cases: relative viability (nuclei count vs DMSO), 5 days (fraction); higher = more cells survive
A-427 = system: A-427
How it was run: (§1)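 Dosing by pin tool came one day after lung cancer cell lines were seeded in 1536-well plates, using either one drug or a fixed anchor-drug dose plus five library-drug doses (not always all listed) in √10 steps. After 5 days, nuclei were counted on 4× images. Relative viability is treated-well nuclei count divided by vehicle-well nuclei count, and values are medians of duplicate plates.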

ABC-1 = system: ABC-1
How it was run: as §1

COR-L23 = system: COR-L23
How it was run: as §1

EMC-BAC-2 = system: EMC-BAC-2
How it was run: as §1

HARA = system: HARA
How it was run: as §1

HOP-62 = system: HOP-62
How it was run: as §1

LK-2 = system: LK-2
How it was run: as §1

LXF-289 = system: LXF-289
How it was run: as §1

NCI-H1793 = system: NCI-H1793
How it was run: as §1

NCI-H1944 = system: NCI-H1944
How it was run: as §1

NCI-H1993 = system: NCI-H1993
How it was run: as §1

NCI-H2009 = system: NCI-H2009
How it was run: as §1

NCI-H2170 = system: NCI-H2170
How it was run: as §1

NCI-H2228 = system: NCI-H2228
How it was run: as §1

NCI-H3122 = system: NCI-H3122
How it was run: as §1

NCI-H596 = system: NCI-H596
How it was run: as §1

NCI-H727 = system: NCI-H727
How it was run: as §1

PC-3 [JPC-3] = system: PC-3 [JPC-3]
How it was run: as §1

SK-LU-1 = system: SK-LU-1
How it was run: as §1

SK-MES-1 = system: SK-MES-1
How it was run: as §1

SW 1573 = system: SW 1573
How it was run: as §1

SW 900 = system: SW 900
How it was run: as §1

CC1(C)CCC(c2ccc(Cl)cc2)=C(CN2CCN(c3ccc(C(=O)NS(=O)(=O)c4ccc(N[C@H](CCN5CCOCC5)CSc5ccccc5)c(S(=O)(=O)C(F)(F)F)c4)cc3)CC2)C1 [Navitoclax] + COc1cc2c(Oc3ccc(NC(=O)C4(C(=O)Nc5ccc(F)cc5)CC4)cc3F)ccnc2cc1OCCCN1CCOCC1 [Foretinib] (partner 0.25 µM)
relative viability (A-427; first compound 0.005 µM): 0.988 | relative viability (A-427; first compound 0.01581 µM): 1.07 | relative viability (A-427; first compound 0.05 µM): 0.821 | relative viability (A-427; first compound 0.1581 µM): 1.04 | relative viability (A-427; first compound 0.5 µM): 1.1 | relative viability (ABC-1; first compound 0.005 µM): 1.32 | relative viability (ABC-1; first compound 0.01581 µM): 1.17 | relative viability (ABC-1; first compound 0.05 µM): 1.12 | relative viability (ABC-1; first compound 0.1581 µM): 1.07 | relative viability (ABC-1; first compound 0.5 µM): 1.05 | relative viability (COR-L23; first compound 0.005 µM): 0.957 | relative viability (COR-L23; first compound 0.01581 µM): 1.13 | relative viability (COR-L23; first compound 0.05 µM): 1.02 | relative viability (COR-L23; first compound 0.1581 µM): 0.938 | relative viability (COR-L23; first compound 0.5 µM): 0.947 | relative viability (EMC-BAC-2; first compound 0.005 µM): 1.07 | relative viability (EMC-BAC-2; first compound 0.01581 µM): 1.14 | relative viability (EMC-BAC-2; first compound 0.05 µM): 0.96 | relative viability (EMC-BAC-2; first compound 0.1581 µM): 1.01 | relative viability (EMC-BAC-2; first compound 0.5 µM): 1.05 | relative viability (HARA; first compound 0.005 µM): 0.923 | relative viability (HARA; first compound 0.01581 µM): 1.05 | relative viability (HARA; first compound 0.1581 µM): 0.877 | relative viability (HARA; first compound 0.5 µM): 0.863 | relative viability (HOP-62; first compound 0.005 µM): 1.07 | relative viability (HOP-62; first compound 0.01581 µM): 1.15 | relative viability (HOP-62; first compound 0.05 µM): 1.19 | relative viability (HOP-62; first compound 0.1581 µM): 1.02 | relative viability (HOP-62; first compound 0.5 µM): 1.02 | relative viability (LK-2; first compound 0.005 µM): 1.22 | relative viability (LK-2; first compound 0.01581 µM): 1.15 | relative viability (LK-2; first compound 0.05 µM): 0.645 | relative viability (LK-2; first compound 0.1581 µM): 1.24 | relative viability (LK-2; first compound 0.5 µM): 1.08 | relative viability (LXF-289; first compound 0.005 µM): 1.05 | relative viability (LXF-289; first compound 0.01581 µM): 0.981 | relative viability (LXF-289; first compound 0.05 µM): 0.924 | relative viability (LXF-289; first compound 0.1581 µM): 0.93 | relative viability (LXF-289; first compound 0.5 µM): 0.966 | relative viability (NCI-H1793; first compound 0.005 µM): 0.616 | relative viability (NCI-H1793; first compound 0.01581 µM): 0.711 | relative viability (NCI-H1793; first compound 0.1581 µM): 0.608 | relative viability (NCI-H1793; first compound 0.5 µM): 0.622 | relative viability (NCI-H1944; first compound 0.005 µM): 0.872 | relative viability (NCI-H1944; first compound 0.01581 µM): 0.945 | relative viability (NCI-H1944; first compound 0.05 µM): 0.745 | relative viability (NCI-H1944; first compound 0.1581 µM): 0.851 | relative viability (NCI-H1944; first compound 0.5 µM): 0.741 | relative viability (NCI-H1993; first compound 0.005 µM): 0.854 | relative viability (NCI-H1993; first compound 0.01581 µM): 0.938 | relative viability (NCI-H1993; first compound 0.05 µM): 0.687 | relative viability (NCI-H1993; first compound 0.1581 µM): 0.839 | relative viability (NCI-H1993; first compound 0.5 µM): 0.862 | relative viability (NCI-H2009; first compound 0.005 µM): 1.22 | relative viability (NCI-H2009; first compound 0.01581 µM): 1.29 | relative viability (NCI-H2009; first compound 0.05 µM): 1.26 | relative viability (NCI-H2009; first compound 0.1581 µM): 1.26 | relative viability (NCI-H2009; first compound 0.5 µM): 1.27 | relative viability (NCI-H2170; first compound 0.005 µM): 0.969 | relative viability (NCI-H2170; first compound 0.01581 µM): 1.02 | relative viability (NCI-H2170; first compound 0.05 µM): 1.08 | relative viability (NCI-H2170; first compound 0.1581 µM): 1.07 | relative viability (NCI-H2170; first compound 0.5 µM): 0.955 | relative viability (NCI-H2228; first compound 0.005 µM): 0.727 | relative viability (NCI-H2228; first compound 0.01581 µM): 1.04 | relative viability (NCI-H2228; first compound 0.1581 µM): 1.01 | relative viability (NCI-H2228; first compound 0.5 µM): 0.85 | relative viability (NCI-H3122; first compound 0.005 µM): 0.936 | relative viability (NCI-H3122; first compound 0.01581 µM): 1.04 | relative viability (NCI-H3122; first compound 0.05 µM): 0.964 | relative viability (NCI-H3122; first compound 0.1581 µM): 0.934 | relative viability (NCI-H3122; first compound 0.5 µM): 0.966 | relative viability (NCI-H596; first compound 0.005 µM): 1.08 | relative viability (NCI-H596; first compound 0.01581 µM): 0.853 | relative viability (NCI-H596; first compound 0.1581 µM): 0.839 | relative viability (NCI-H596; first compound 0.5 µM): 0.917 | relative viability (NCI-H727; first compound 0.005 µM): 1.12 | relative viability (NCI-H727; first compound 0.01581 µM): 0.902 | relative viability (NCI-H727; first compound 0.1581 µM): 0.829 | relative viability (NCI-H727; first compound 0.5 µM): 0.858 | relative viability (PC-3 [JPC-3]; first compound 0.005 µM): 1.02 | relative viability (PC-3 [JPC-3]; first compound 0.01581 µM): 1.03 | relative viability (PC-3 [JPC-3]; first compound 0.05 µM): 1.12 | relative viability (PC-3 [JPC-3]; first compound 0.1581 µM): 1.02 | relative viability (PC-3 [JPC-3]; first compound 0.5 µM): 1.06 | relative viability (SK-LU-1; first compound 0.005 µM): 0.928 | relative viability (SK-LU-1; first compound 0.01581 µM): 0.954 | relative viability (SK-LU-1; first compound 0.05 µM): 0.953 | relative viability (SK-LU-1; first compound 0.1581 µM): 0.772 | relative viability (SK-LU-1; first compound 0.5 µM): 0.741 | relative viability (SK-MES-1; first compound 0.005 µM): 0.817 | relative viability (SK-MES-1; first compound 0.01581 µM): 1.09 | relative viability (SK-MES-1; first compound 0.05 µM): 0.916 | relative viability (SK-MES-1; first compound 0.1581 µM): 0.895 | relative viability (SK-MES-1; first compound 0.5 µM): 1.04 | relative viability (SW 1573; first compound 0.005 µM): 1.06 | relative viability (SW 1573; first compound 0.01581 µM): 1 | relative viability (SW 1573; first compound 0.05 µM): 0.922 | relative viability (SW 1573; first compound 0.1581 µM): 1.02 | relative viability (SW 1573; first compound 0.5 µM): 1.04 | relative viability (SW 900; first compound 0.005 µM): 0.857 | relative viability (SW 900; first compound 0.01581 µM): 1.04 | relative viability (SW 900; first compound 0.05 µM): 0.819 | relative viability (SW 900; first compound 0.1581 µM): 0.643 | relative viability (SW 900; first compound 0.5 µM): 0.85
